Measured values: US12077503B2, “Substituted cyclic amides and their use as herbicides” (FMC CORPORATION, priority 2015, dated 2024)

Key:
Assay type in all cases: in vivo
[1] = test system: redroot pigweed (Amaranthus retroflexus); experiment: Test G Post-Emergence Protocol; settings: Amaranthus retroflexus, post-emergence, 312 h; for pest or weed control at 15.625 g/ha: 15.625 g ai/ha, evaluated after 13 days (100=total damage to plant; 0=no damage to plant), read-out: Pigweed, Redroot damage rating; for pest or weed control at 62.5 g/ha: 62.5 g ai/ha, read-out: Pigweed, Redroot damage rating (100=total damage to plant; 0=no damage to plant); for pest or weed control at 62.5 g/ha / pest or weed control at 250 g/ha: evaluated after 13 days; for pest or weed control at 250 g/ha: 250 g ai/ha, read-out: damage to plant, Pigweed, Redroot (100=total damage to plant; 0=no damage to plant)
Outline: (§1)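 Damage was rated 13 days after treatment from 0 (none) to 100 (plant killed). Compound was applied as a spray at 15.625, 62.5 or 250 g/ha in 50:50 acetone/water containing 0.5% Tween 20, onto 8-day-old potted plants kept in a glasshouse (24/16 °C, 14 h light, 65% humidity).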

[2] = test system: ivy-leaved morning glory (Ipomoea hederacea); experiment: Test G Post-Emergence Protocol; settings: Ipomoea, post-emergence, 312 h; for pest or weed control at 15.625 g/ha: 15.625 g ai/ha, evaluated after 13 days (100=total damage to plant; 0=no damage to plant), read-out: Morningglory, Ivy-leaved damage rating; for pest or weed control at 62.5 g/ha: 62.5 g ai/ha, read-out: Morningglory, Ivy-leaved damage rating (100=total damage to plant; 0=no damage to plant); for pest or weed control at 62.5 g/ha / pest or weed control at 250 g/ha: evaluated after 13 days; for pest or weed control at 250 g/ha: 250 g ai/ha, read-out: damage to plant, Morningglory, Ivy-leaved (100=total damage to plant; 0=no damage to plant)
Outline: as §1

[3] = test system: giant foxtail (Setaria faberi); experiment: Test G Post-Emergence Protocol; settings: Setaria faberi, post-emergence, 312 h; for pest or weed control at 15.625 g/ha: 15.625 g ai/ha, evaluated after 13 days (100=total damage to plant; 0=no damage to plant), read-out: Foxtail, Giant damage rating; for pest or weed control at 62.5 g/ha: 62.5 g ai/ha, read-out: Foxtail, Giant damage rating (100=total damage to plant; 0=no damage to plant); for pest or weed control at 62.5 g/ha / pest or weed control at 250 g/ha: evaluated after 13 days; for pest or weed control at 250 g/ha: 250 g ai/ha, read-out: damage to plant, Foxtail, Giant (100=total damage to plant; 0=no damage to plant)
Outline: as §1

corn (Zea mays) [4] = experiment: Test G Post-Emergence Protocol; settings: Zea mays, post-emergence, 312 h; for plant injury at 15.625 g/ha: 15.625 g ai/ha, evaluated after 13 days (100=total damage to plant; 0=no damage to plant), read-out: Corn damage rating; for plant injury at 62.5 g/ha: 62.5 g ai/ha, read-out: Corn damage rating (100=total damage to plant; 0=no damage to plant); for plant injury at 62.5 g/ha / plant injury at 250 g/ha: evaluated after 13 days; for plant injury at 250 g/ha: 250 g ai/ha, read-out: damage to plant, Corn (100=total damage to plant; 0=no damage to plant)
Outline: as §1

[5] = test system: barnyardgrass (Echinochloa crus-galli); experiment: Test G Post-Emergence Protocol; settings: Echinochloa crus-galli, post-emergence, 312 h; for pest or weed control at 15.625 g/ha: 15.625 g ai/ha, evaluated after 13 days (100=total damage to plant; 0=no damage to plant), read-out: Barnyardgrass damage rating; for pest or weed control at 62.5 g/ha: 62.5 g ai/ha, read-out: Barnyardgrass damage rating (100=total damage to plant; 0=no damage to plant); for pest or weed control at 62.5 g/ha / pest or weed control at 250 g/ha: evaluated after 13 days; for pest or weed control at 250 g/ha: 250 g ai/ha, read-out: damage to plant, Barnyardgrass (100=total damage to plant; 0=no damage to plant)
Outline: as §1

[6] = test system: velvetleaf (Abutilon theophrasti); experiment: Test G Post-Emergence Protocol; settings: Abutilon theophrasti, post-emergence, 312 h; for pest or weed control at 15.625 g/ha: 15.625 g ai/ha, evaluated after 13 days (100=total damage to plant; 0=no damage to plant), read-out: Velvetleaf damage rating; for pest or weed control at 62.5 g/ha: 62.5 g ai/ha, read-out: Velvetleaf damage rating (100=total damage to plant; 0=no damage to plant); for pest or weed control at 62.5 g/ha / pest or weed control at 250 g/ha: evaluated after 13 days; for pest or weed control at 250 g/ha: 250 g ai/ha, read-out: damage to plant, Velvetleaf (100=total damage to plant; 0=no damage to plant)
Outline: as §1

[7] = test system: redroot pigweed (Amaranthus retroflexus); experiment: Test G Pre-Emergence Protocol; settings: Amaranthus retroflexus, pre-emergence, 312 h, evaluated after 13 days; for pest or weed control at 15.625 g/ha: 15.625 g ai/ha; for pest or weed control at 15.625 g/ha / pest or weed control at 250 g/ha: read-out: Pigweed, Redroot damage rating (100=total damage to plant; 0=no damage to plant); for pest or weed control at 62.5 g/ha: 62.5 g ai/ha, 100=total damage to plant, 0=no damage to plant, read-out: plant damage rating, Pigweed, Redroot; for pest or weed control at 250 g/ha: 250 g ai/ha
Outline: (§2)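 Glasshouse pre-emergence test: soil-sown seeds, sprayed after 1 d at 15.625, 62.5 or 250 g/ha. Conditions 24/16° C day/night, 14 h light, 65% humidity, watering twice daily. Rating 13 d post-spray (100 = total damage).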

[8] = test system: ivy-leaved morning glory (Ipomoea hederacea); experiment: Test G Pre-Emergence Protocol; settings: Ipomoea, pre-emergence, 312 h, evaluated after 13 days; for pest or weed control at 15.625 g/ha: 15.625 g ai/ha, read-out: Morning-glory, Ivy-leaved damage rating (100=total damage to plant; 0=no damage to plant); for pest or weed control at 62.5 g/ha: 62.5 g ai/ha, 100=total damage to plant, 0=no damage to plant, read-out: plant damage rating, Morningglory, Ivy-leaved; for pest or weed control at 250 g/ha: 250 g ai/ha, read-out: Morningglory, Ivy-leaved damage rating (100=total damage to plant; 0=no damage to plant)
Outline: as §2

[9] = test system: giant foxtail (Setaria faberi); experiment: Test G Pre-Emergence Protocol; settings: Setaria faberi, pre-emergence, 312 h, evaluated after 13 days; for pest or weed control at 15.625 g/ha: 15.625 g ai/ha; for pest or weed control at 15.625 g/ha / pest or weed control at 250 g/ha: read-out: Foxtail, Giant damage rating (100=total damage to plant; 0=no damage to plant); for pest or weed control at 62.5 g/ha: 62.5 g ai/ha, 100=total damage to plant, 0=no damage to plant, read-out: plant damage rating, Foxtail, Giant; for pest or weed control at 250 g/ha: 250 g ai/ha
Outline: as §2

corn (Zea mays) [10] = experiment: Test G Pre-Emergence Protocol; settings: Zea mays, pre-emergence, 312 h, evaluated after 13 days; for plant injury at 15.625 g/ha: 15.625 g ai/ha; for plant injury at 15.625 g/ha / plant injury at 250 g/ha: read-out: Corn damage rating (100=total damage to plant; 0=no damage to plant); for plant injury at 62.5 g/ha: 62.5 g ai/ha, 100=total damage to plant, 0=no damage to plant, read-out: plant damage rating, Corn; for plant injury at 250 g/ha: 250 g ai/ha
Outline: as §2

[11] = test system: barnyardgrass (Echinochloa crus-galli); experiment: Test G Pre-Emergence Protocol; settings: Echinochloa crus-galli, pre-emergence, 312 h, evaluated after 13 days; for pest or weed control at 15.625 g/ha: 15.625 g ai/ha, read-out: Barnyard grass damage rating (100=total damage to plant; 0=no damage to plant); for pest or weed control at 62.5 g/ha: 62.5 g ai/ha, 100=total damage to plant, 0=no damage to plant, read-out: plant damage rating, Barnyardgrass; for pest or weed control at 250 g/ha: 250 g ai/ha, read-out: Barnyardgrass damage rating (100=total damage to plant; 0=no damage to plant)
Outline: as §2

[12] = test system: velvetleaf (Abutilon theophrasti); experiment: Test G Pre-Emergence Protocol; settings: Abutilon theophrasti, pre-emergence, 312 h, evaluated after 13 days; for pest or weed control at 15.625 g/ha: 15.625 g ai/ha; for pest or weed control at 15.625 g/ha / pest or weed control at 250 g/ha: read-out: Velvetleaf damage rating (100=total damage to plant; 0=no damage to plant); for pest or weed control at 62.5 g/ha: 62.5 g ai/ha, 100=total damage to plant, 0=no damage to plant, read-out: plant damage rating, Velvetleaf; for pest or weed control at 250 g/ha: 250 g ai/ha
Outline: as §2

Row | Compound | pest or weed control at 15.625 g/ha [1] | pest or weed control at 62.5 g/ha [1] | pest or weed control at 250 g/ha [1] | pest or weed control at 15.625 g/ha [2] | pest or weed control at 62.5 g/ha [2] | pest or weed control at 250 g/ha [2] | pest or weed control at 15.625 g/ha [3] | pest or weed control at 62.5 g/ha [3] | pest or weed control at 250 g/ha [3] | plant injury at 15.625 g/ha (corn (Zea mays) [4]) | plant injury at 62.5 g/ha (corn (Zea mays) [4]) | plant injury at 250 g/ha (corn (Zea mays) [4]) | pest or weed control at 15.625 g/ha [5] | pest or weed control at 62.5 g/ha [5] | pest or weed control at 250 g/ha [5] | pest or weed control at 15.625 g/ha [6] | pest or weed control at 62.5 g/ha [6] | pest or weed control at 250 g/ha [6] | pest or weed control at 15.625 g/ha [7] | pest or weed control at 62.5 g/ha [7] | further results
1 | CN1C[C@@H](c2cc(Cl)nc(Cl)c2)[C@H](C(=O)Nc2cccc(F)c2F)C1=O (racemic) [Compound 1494] | 0% | 0% | 0% | 10% | 40% | 50% | 60% | 60% | 60% | 10% | 30% | 80% | 30% | 60% | 50% | 0% | 0% | 30% | 0% | 0% | pest or weed control at 250 g/ha [7]: 30%; pest or weed control at 15.625 g/ha [8]: 0%; pest or weed control at 62.5 g/ha [8]: 0%; pest or weed control at 250 g/ha [8]: 70%; pest or weed control at 15.625 g/ha [9]: 70%; pest or weed control at 62.5 g/ha [9]: 80%; pest or weed control at 250 g/ha [9]: 80%; plant injury at 15.625 g/ha (corn (Zea mays) [10]): 0%; plant injury at 62.5 g/ha (corn (Zea mays) [10]): 20%; plant injury at 250 g/ha (corn (Zea mays) [10]): 60%; pest or weed control at 15.625 g/ha [11]: 80%; pest or weed control at 62.5 g/ha [11]: 80%; pest or weed control at 250 g/ha [11]: 90%; pest or weed control at 15.625 g/ha [12]: 0%; pest or weed control at 62.5 g/ha [12]: 0%; pest or weed control at 250 g/ha [12]: 0%
2 | CN1C[C@H](c2ccc3c(c2)CCCC3)[C@@H](C(=O)Nc2cccc(F)c2F)C1=O (racemic) [Compound 1496] | 0% | 0% | 0% | 0% | 0% | 0% | 20% | 60% | 60% | 10% | 20% | 50% | 20% | 50% | 60% | 0% | 0% | 20% | 0% | 0% | pest or weed control at 250 g/ha [7]: 0%; pest or weed control at 15.625 g/ha [8]: 0%; pest or weed control at 62.5 g/ha [8]: 0%; pest or weed control at 250 g/ha [8]: 0%; pest or weed control at 15.625 g/ha [9]: 0%; pest or weed control at 62.5 g/ha [9]: 50%; pest or weed control at 250 g/ha [9]: 80%; plant injury at 15.625 g/ha (corn (Zea mays) [10]): 0%; plant injury at 62.5 g/ha (corn (Zea mays) [10]): 0%; plant injury at 250 g/ha (corn (Zea mays) [10]): 20%; pest or weed control at 15.625 g/ha [11]: 0%; pest or weed control at 62.5 g/ha [11]: 40%; pest or weed control at 250 g/ha [11]: 80%; pest or weed control at 15.625 g/ha [12]: 0%; pest or weed control at 62.5 g/ha [12]: 0%; pest or weed control at 250 g/ha [12]: 0%
3 | CN1C[C@H](c2ccc(C(F)(F)F)cc2)[C@@H](C(=O)Nc2cccc(C(F)F)c2)C1=O (racemic) [Compound 1498] | 0% | 0% | 0% | 0% | 0% | 0% | 0% | 0% | 30% | 0% | 0% | 0% | 0% | 0% | 30% | 0% | 0% | 0% | 0% | 0% | pest or weed control at 250 g/ha [7]: 0%; pest or weed control at 15.625 g/ha [8]: 0%; pest or weed control at 62.5 g/ha [8]: 0%; pest or weed control at 250 g/ha [8]: 0%; pest or weed control at 15.625 g/ha [9]: 0%; pest or weed control at 62.5 g/ha [9]: 0%; pest or weed control at 250 g/ha [9]: 10%; plant injury at 15.625 g/ha (corn (Zea mays) [10]): 0%; plant injury at 62.5 g/ha (corn (Zea mays) [10]): 0%; plant injury at 250 g/ha (corn (Zea mays) [10]): 0%; pest or weed control at 15.625 g/ha [11]: 0%; pest or weed control at 62.5 g/ha [11]: 0%; pest or weed control at 250 g/ha [11]: 20%; pest or weed control at 15.625 g/ha [12]: 0%; pest or weed control at 62.5 g/ha [12]: 0%; pest or weed control at 250 g/ha [12]: 0%
